Laboratory results taken from ChEMBL document CHEMBL6182949 (J Med Chem, 2025).
The source made the active and inactive calls. The calls are words filed in the database; no cut-off is given here.

Columns and labels:
[1] = Cmax in male C57BL/6 mouse at 2 mg/kg, iv measured up to 24 hrs by LC-MS/MS analysis; type: ADME, organism-based; settings: in vivo
[2] = Oral bioavailability in Sprague-Dawley rat at 10 mg/kg measured up to 24 hrs by LC-MS/MS analysis; type: ADME, organism-based; settings: in vivo
[3] = Metabolic stability in mouse liver microsome assessed as half life at 1 uM measured up to 60 mins in presence of NADPH by LC-MS/MS analysis; type: ADME; settings: liver microsomes
[4] = Half life in male C57BL/6 mouse at 10 mg/kg, po measured up to 24 hrs by LC-MS/MS analysis; type: ADME, organism-based; settings: in vivo
[5] = Half life in male C57BL/6 mouse at 2 mg/kg, iv measured up to 24 hrs by LC-MS/MS analysis; type: ADME, organism-based; settings: in vivo
[6] = Cmax in Sprague-Dawley rat at 2 mg/kg, iv measured up to 24 hrs by LC-MS/MS analysis; type: ADME, organism-based; settings: in vivo
[7] = Half life in Sprague-Dawley rat at 10 mg/kg, po measured up to 24 hrs by LC-MS/MS analysis; type: ADME, organism-based; settings: in vivo
[8] = Cmax in male C57BL/6 mouse at 10 mg/kg, po measured up to 24 hrs by LC-MS/MS analysis; type: ADME, organism-based; settings: in vivo
[9] = Clearance in male C57BL/6 mouse at 2 mg/kg, iv measured up to 24 hrs by LC-MS/MS analysis; type: ADME, organism-based; settings: in vivo
[10] = Volume of distribution at steady state in Sprague-Dawley rat at 2 mg/kg, iv measured up to 24 hrs by LC-MS/MS analysis; type: ADME, organism-based; settings: in vivo, read-out: Vdss
[11] = Metabolic stability in cynomolgus monkey liver microsome assessed as half life at 1 uM measured up to 60 mins in presence of NADPH by LC-MS/MS analysis; type: ADME, Macaca fascicularis; settings: liver microsomes
[12] = Oral bioavailability in male C57BL/6 mouse at 10 mg/kg measured up to 24 hrs by LC-MS/MS analysis; type: ADME, organism-based; settings: in vivo
[13] = Metabolic stability in human liver microsome assessed as half life at 1 uM measured up to 60 mins in presence of NADPH by LC-MS/MS analysis; type: ADME; settings: liver microsomes
[14] = biological target: T1, Protein cereblon/Interleukin-1 receptor-associated kinase 4 (Homo sapiens, UniProt Q9NWZ3+Q96SW2); experiment: PROTAC activity at CRBN/IRAK4 in human THP-1 cells assessed as induction of IRAK4 degradation incubated for 24 hrs by HiBiT lytic reagent based analysis relative to control; type: cell-based
Target sequence in this assay (Q96SW2 whole entry, looked up): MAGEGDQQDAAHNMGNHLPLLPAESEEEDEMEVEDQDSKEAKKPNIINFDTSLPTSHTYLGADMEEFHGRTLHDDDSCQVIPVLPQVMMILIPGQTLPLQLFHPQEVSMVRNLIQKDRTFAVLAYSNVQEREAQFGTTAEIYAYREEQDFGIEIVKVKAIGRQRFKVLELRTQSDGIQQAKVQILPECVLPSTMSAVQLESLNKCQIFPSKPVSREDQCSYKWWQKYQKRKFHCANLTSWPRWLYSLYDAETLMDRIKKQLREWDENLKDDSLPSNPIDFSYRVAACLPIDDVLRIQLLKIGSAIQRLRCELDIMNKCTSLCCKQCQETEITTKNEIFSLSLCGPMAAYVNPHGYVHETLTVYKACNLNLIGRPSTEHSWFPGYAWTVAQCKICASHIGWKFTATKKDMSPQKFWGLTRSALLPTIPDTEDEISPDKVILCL
Target sequence in this assay (Q9NWZ3 whole entry, looked up): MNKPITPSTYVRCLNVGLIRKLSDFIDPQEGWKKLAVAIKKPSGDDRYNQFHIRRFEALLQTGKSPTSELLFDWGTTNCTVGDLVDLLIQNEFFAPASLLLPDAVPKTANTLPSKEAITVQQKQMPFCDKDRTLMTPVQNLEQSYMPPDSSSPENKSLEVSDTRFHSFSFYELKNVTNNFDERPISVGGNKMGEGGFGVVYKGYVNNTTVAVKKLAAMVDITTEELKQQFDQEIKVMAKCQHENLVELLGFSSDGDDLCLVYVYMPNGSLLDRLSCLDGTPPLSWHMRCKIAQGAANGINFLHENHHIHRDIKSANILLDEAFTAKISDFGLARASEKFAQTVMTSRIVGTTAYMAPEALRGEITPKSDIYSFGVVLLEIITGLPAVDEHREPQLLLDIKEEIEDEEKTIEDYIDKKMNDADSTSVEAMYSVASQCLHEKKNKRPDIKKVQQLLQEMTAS

hERG (KCNH2) [15] = biological target: T2, hERG (KCNH2) (Homo sapiens, UniProt Q12809); experiment: Inhibition of hERG expressed in HEK293 cells at 3 uM by manual patch clamp assay relative to control; type: toxicity, cell-based; settings: HEK293 cells expressing hERG
[16] = Tmax in male C57BL/6 mouse at 10 mg/kg, po measured up to 24 hrs by LC-MS/MS analysis; type: ADME, organism-based; settings: in vivo
[17] = AUClast in male C57BL/6 mouse at 2 mg/kg, iv measured up to 24 hrs by LC-MS/MS analysis; type: ADME, organism-based; settings: in vivo
[18] = Tmax in Sprague-Dawley rat at 10 mg/kg, po measured up to 24 hrs by LC-MS/MS analysis; type: ADME, organism-based; settings: in vivo
[19] = AUClast in male C57BL/6 mouse at 10 mg/kg, po measured up to 24 hrs by LC-MS/MS analysis; type: ADME, organism-based; settings: in vivo
[20] = Volume of distribution at steady state in male C57BL/6 mouse at 2 mg/kg, iv measured up to 24 hrs by LC-MS/MS analysis; type: ADME, organism-based; settings: in vivo, read-out: Vdss
[21] = Metabolic stability in dog liver microsome assessed as half life at 1 uM measured up to 60 mins in presence of NADPH by LC-MS/MS analysis; type: ADME, Canis lupus familiaris; settings: liver microsomes
[22] = biological target: T1, Protein cereblon/Interleukin-1 receptor-associated kinase 4; experiment: PROTAC activity at CRBN/IRAK4 in human THP-1 cells assessed as induction of IRAK4 degradation incubated for 24 hrs by HiBiT lytic reagent based analysis; type: cell-based
Target sequence in this assay (Q9NWZ3 whole entry): as the sequence (Q9NWZ3 whole entry, looked up) above
Target sequence in this assay (Q96SW2 whole entry): as the sequence (Q96SW2 whole entry, looked up) above

[23] = Clearance in Sprague-Dawley rat at 2 mg/kg, iv measured up to 24 hrs by LC-MS/MS analysis; type: ADME, organism-based; settings: in vivo
[24] = Metabolic stability in rat liver microsome assessed as half life at 1 uM measured up to 60 mins in presence of NADPH by LC-MS/MS analysis; type: ADME; settings: liver microsomes
[25] = Cmax in Sprague-Dawley rat at 10 mg/kg, po measured up to 24 hrs by LC-MS/MS analysis; type: ADME, organism-based; settings: in vivo
[26] = Half life in Sprague-Dawley rat at 2 mg/kg, iv measured up to 24 hrs by LC-MS/MS analysis; type: ADME, organism-based; settings: in vivo
[27] = AUClast in Sprague-Dawley rat at 10 mg/kg, po measured up to 24 hrs by LC-MS/MS analysis; type: ADME, organism-based; settings: in vivo
[28] = AUClast in Sprague-Dawley rat at 2 mg/kg, iv measured up to 24 hrs by LC-MS/MS analysis; type: ADME, organism-based; settings: in vivo
Mus musculus = experiment: Anti-arthritic activity against collagen-induced arthritis DBA/1 mouse model assessed as reduction in pathological score at 30 mg/kg, po administered for 14 days; type: functional, organism-based; settings: time 14.0 day
hERG = hERG (Homo sapiens, UniProt Q12809); experiment: Inhibition of hERG expressed in HEK293 cells at 10 uM by manual patch clamp assay relative to control; type: toxicity, cell-based; settings: HEK293 cells expressing hERG
[29] = biological target: Voltage-gated inwardly rectifying potassium channel KCNH2 (Homo sapiens, UniProt Q12809); experiment: Inhibition of hERG expressed in HEK293 cells by manual patch clamp assay; type: toxicity, cell-based; parameters: concentration or dose not given beside the values
hERG (KCNH2) [30] = biological target: T2, hERG (KCNH2); experiment: Inhibition of hERG expressed in HEK293 cells at 1 uM by manual patch clamp assay relative to control; type: toxicity, cell-based; settings: HEK293 cells expressing hERG

T2 sequence (Q12809 whole entry): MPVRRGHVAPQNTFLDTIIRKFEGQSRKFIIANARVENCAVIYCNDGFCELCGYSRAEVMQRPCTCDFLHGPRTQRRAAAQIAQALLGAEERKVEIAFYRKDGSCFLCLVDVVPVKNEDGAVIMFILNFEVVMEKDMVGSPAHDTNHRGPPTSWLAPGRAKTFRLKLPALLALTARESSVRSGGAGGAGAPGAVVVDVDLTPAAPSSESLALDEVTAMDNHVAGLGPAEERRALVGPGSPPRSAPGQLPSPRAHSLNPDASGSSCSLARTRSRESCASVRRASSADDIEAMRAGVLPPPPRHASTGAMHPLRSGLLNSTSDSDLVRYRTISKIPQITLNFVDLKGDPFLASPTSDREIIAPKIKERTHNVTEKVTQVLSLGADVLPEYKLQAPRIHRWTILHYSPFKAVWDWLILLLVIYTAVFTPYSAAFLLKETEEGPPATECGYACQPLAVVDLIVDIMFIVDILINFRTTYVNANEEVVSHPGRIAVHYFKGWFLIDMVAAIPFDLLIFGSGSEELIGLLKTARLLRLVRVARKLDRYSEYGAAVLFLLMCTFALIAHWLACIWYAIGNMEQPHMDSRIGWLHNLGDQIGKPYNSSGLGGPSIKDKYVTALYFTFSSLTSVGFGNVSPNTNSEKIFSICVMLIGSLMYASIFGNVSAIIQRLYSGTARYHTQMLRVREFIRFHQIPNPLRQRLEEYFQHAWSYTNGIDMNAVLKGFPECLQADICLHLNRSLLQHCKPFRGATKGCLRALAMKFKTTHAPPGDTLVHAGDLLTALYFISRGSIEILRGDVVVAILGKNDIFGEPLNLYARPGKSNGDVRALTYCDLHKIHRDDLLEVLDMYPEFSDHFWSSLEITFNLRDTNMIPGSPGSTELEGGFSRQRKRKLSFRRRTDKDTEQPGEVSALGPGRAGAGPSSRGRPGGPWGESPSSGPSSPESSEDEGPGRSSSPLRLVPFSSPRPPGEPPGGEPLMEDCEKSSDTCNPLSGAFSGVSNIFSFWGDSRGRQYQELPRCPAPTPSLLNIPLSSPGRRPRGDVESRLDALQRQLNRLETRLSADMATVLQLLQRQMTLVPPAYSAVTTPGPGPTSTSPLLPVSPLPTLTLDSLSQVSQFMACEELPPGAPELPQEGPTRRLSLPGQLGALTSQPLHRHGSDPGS
hERG, sequence (Q12809 whole entry): as above
Voltage-gated inwardly rectifying potassium channel KCNH2, sequence (Q12809 whole entry): as above

Row | Structure (SMILES) | Cmax [1] | half-life at 1 µM [3] | half-life [4] | half-life [5] | Cmax [8] | clearance [9] | half-life at 1 µM [11] | bioavailability [12] | half-life at 1 µM [13] | Emax [14] | Tmax [16] | AUC(0-t) at 24 h [17] | AUC(0-t) at 24 h [19] | Vd [20] | half-life at 1 µM [21] | DC50 [22] | half-life at 1 µM [24] | further results
1 | C[C@@H]1CCN(C(=O)CC#N)C[C@@H]1N(C)c1ncnc2[nH]ccc12 | – | – | – | – | – | – | – | – | – | – | – | – | – | – | – | – | – | Activity (Mus musculus): Active
2 | Cn1c(=O)n(C2CCC(=O)NC2=O)c2cccc(CN3CCC(CCN4CCC5(CC4)Cc4cc(NC(=O)c6cnn7cccnc67)c(N6CCC(CO)CC6)cc4O5)CC3)c21 (centres undefined) | – | 1.1 h | – | – | – | – | 0.217 h | – | 0.733 h | 92% | – | – | – | – | 1.55 h | 1.09 nM | 0.817 h | inhibition (INH) [29]: 28%

Continued, in another order:

Row | Cmax [1] | half-life at 1 µM [3] | half-life [4] | half-life [5] | Cmax [8] | clearance [9] | half-life at 1 µM [11] | bioavailability [12] | half-life at 1 µM [13] | Emax [14] | Tmax [16] | AUC(0-t) at 24 h [17] | AUC(0-t) at 24 h [19] | Vd [20] | half-life at 1 µM [21] | DC50 [22] | half-life at 1 µM [24] | Structure (SMILES) | further results
3 | 2780 ng/mL | > 3.07 h | 3.82 h | 2.76 h | 3490 ng/mL | 2.44 mL/min/kg | 1.07 h | 59% | > 3.07 h | 87% | 4 h | 14100 ng·h/mL | 42100 ng·h/mL | 0.6 L/kg | > 3.07 h | 1.37 nM | > 3.07 h | Cn1c(=O)n(C2CCC(=O)NC2=O)c2cccc(C#CCO[C@H]3CC[C@H](CN4CCC5(CC4)Cc4cc(NC(=O)c6cnn7cccnc67)c(N6CCC(O)CC6)cc4O5)CC3)c21 (some centres undefined) | F [2]: 15%; Cmax [6]: 696 ng/mL; half-life [7]: 3.16 h; Vd [10]: 3.69 L/kg; inhibition at 3 µM (hERG (KCNH2) [15]): 35%; Tmax [18]: 8 h; clearance [23]: 21.4 mL/min/kg; Cmax [25]: 352 ng/mL; half-life [26]: 2.42 h; AUClast [27]: 3395 ng·h/mL; AUClast [28]: 1436 ng·h/mL
4 | – | > 3.07 h | – | – | – | – | – | – | > 3.07 h | 38% | – | – | – | – | > 3.07 h | 12 nM | – | Cn1c(=O)n(C2CCC(=O)NC2=O)c2cccc(C#CCO[C@H]3CC[C@H](CN4CCC5(CC4)Cc4cc(NC(=O)c6cnn7cccnc67)c(N6CCC(C(=O)O)CC6)cc4O5)CC3)c21 (some centres undefined) | inhibition at 10 µM (hERG): 43%
5 | 1230 ng/mL | > 3.07 h | 4.4 h | 9.75 h | 1190 ng/mL | 9.75 mL/min/kg | – | 54% | > 3.07 h | 90% | 2 h | 3190 ng·h/mL | 7390 ng·h/mL | 1.66 L/kg | > 3.07 h | 4.06 nM | – | Cn1c(=O)n(C2CCC(=O)NC2=O)c2cccc(C#CCO[C@H]3CC[C@H](CN4CCC5(CC4)Cc4cc(NC(=O)c6cnc7cccnn67)c(N6CCC(CO)CC6)cc4O5)CC3)c21 (some centres undefined) | inhibition at 1 µM (hERG (KCNH2) [30]): 15%
